Like-named read-outs stand apart in the source and are kept apart here.
How the values were obtained:
[1] = target: PIM1 (Homo sapiens, UniProt P11309); experiment: PIM1 inhibition assay (ligand-binding assay, manufacturer's instructions); format: biochemical; details: Bliss method, three independent determinations, read-out: IC50 (μM): mean ± SD
[2] = cited from earlier work
[3] = Human intestinal absorption percentage values of the PreHIA data set (732 compounds, Table S2); details: class from HIA value
[4] = target: T1, PTGS1 (Ovis aries, UniProt P05979); experiment: PTGS1 inhibition assay (ligand-binding assay, manufacturer's instructions); format: biochemical; details: Bliss method, three independent determinations, read-out: IC50 (μM): mean ± SD
T1 sequence (P05979 25-600): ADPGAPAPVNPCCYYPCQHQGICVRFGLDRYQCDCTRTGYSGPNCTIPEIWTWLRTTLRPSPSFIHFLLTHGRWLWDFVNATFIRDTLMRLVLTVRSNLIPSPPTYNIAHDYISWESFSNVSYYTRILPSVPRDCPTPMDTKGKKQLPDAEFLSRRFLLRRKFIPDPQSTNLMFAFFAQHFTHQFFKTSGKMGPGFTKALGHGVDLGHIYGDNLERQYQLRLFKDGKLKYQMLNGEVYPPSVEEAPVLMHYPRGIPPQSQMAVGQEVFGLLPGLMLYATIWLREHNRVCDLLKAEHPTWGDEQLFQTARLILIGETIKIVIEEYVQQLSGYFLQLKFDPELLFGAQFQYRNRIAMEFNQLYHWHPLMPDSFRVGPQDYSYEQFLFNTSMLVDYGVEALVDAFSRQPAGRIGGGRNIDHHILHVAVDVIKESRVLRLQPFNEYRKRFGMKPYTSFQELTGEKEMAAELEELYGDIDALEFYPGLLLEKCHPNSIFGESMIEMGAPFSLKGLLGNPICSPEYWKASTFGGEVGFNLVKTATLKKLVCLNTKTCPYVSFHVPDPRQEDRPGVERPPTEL
Experimental: To validate the practicability and efficiency of above methods, the inhibitory effects of drugs on predicted targets were quantified by ligand-binding assays according to the manufacturer's instructions. The drug-target interactions were selected at random and readily available on the market, respectively. […] Targets PIM1 and PTGS1 were respectively purchased from Cayman Chemical, Ann Arbor, MI, USA and CycLex, Japan. The purity of all the compounds is >98%. All drugs were dissolved in DMS and freshly prepared due to loss of activity under long-term storage. IC50 values were determined using the Bliss method with three independent determinations.

[5] = human, PreHIA data set, value given as fraction

PIM1, sequence (P11309 whole entry): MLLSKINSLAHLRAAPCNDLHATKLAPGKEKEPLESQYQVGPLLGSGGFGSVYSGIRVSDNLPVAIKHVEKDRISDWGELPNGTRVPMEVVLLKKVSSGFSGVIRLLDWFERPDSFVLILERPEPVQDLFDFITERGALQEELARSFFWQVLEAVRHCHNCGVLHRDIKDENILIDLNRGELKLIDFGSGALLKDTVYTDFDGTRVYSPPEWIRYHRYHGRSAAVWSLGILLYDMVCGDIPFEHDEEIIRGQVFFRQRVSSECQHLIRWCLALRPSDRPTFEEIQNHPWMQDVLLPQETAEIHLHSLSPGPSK

Row | SMILES | IC50 [1] | HIA(Human Intestinal Absorption) [2, 5] | Class(High: HIA value ≥0.7; Low: HIA value < 0.7) [3] | HIA(Human Intestinal Absorption) ([2]; in vivo) | IC50 [4]
1 | O=c1c(O[C@@H]2O[C@H](CO)[C@@H](O)[C@H](O)[C@H]2O)c(-c2ccc(O)cc2)oc2cc(O)cc(O)c12 [Astragalin] | 62 ± 9.7 µM |  |  |  | 
2 | C[N+](C)(C)CC(O)CC(=O)[O-] (stereo not shown) [Carnitine] |  | 0.1 | Low (Low: HIA value < 0.7) |  | 
3 | COc1ccc2cc(CCC(C)=O)ccc2c1 [Nabumetone] |  | 0.8 | High (High: HIA value ≥0.7) |  | 
4 | O=C(c1ccc(F)cc1)C1CCN(CCn2c(=O)[nH]c3ccccc3c2=O)CC1 [Ketanserin] |  | 1 | High (High: HIA value ≥0.7) |  | 
5 | Oc1ccc(C(O)C2CCCCN2)cc1O (stereo not shown) [Rimiterol] |  | 0.48 | Low (Low: HIA value < 0.7) |  | 
6 | Cc1ccc(Cl)c(Nc2ccccc2C(=O)O)c1Cl [Meclofenamic_acid] |  | 1 | High (High: HIA value ≥0.7) |  | 
7 | CC(=O)N1CCN(c2ccc(OCC3COC(Cn4ccnc4)(c4ccc(Cl)cc4Cl)O3)cc2)CC1 (stereo not shown) [Ketoconazole] |  | 0.75 | High (High: HIA value ≥0.7) |  | 
8 | NC(=O)N1C(=O)/C(=C(\O)c2cccs2)c2cc(Cl)ccc21 [Tenidap] |  |  | High (High: HIA value ≥0.7) | 0.89 | 
9 | CCCC[N+]1(C)[C@@H]2C[C@@H](OC(=O)[C@H](CO)c3ccccc3)C[C@H]1[C@@H]1O[C@@H]12 (stereo partly shown) [Butylscopolamine] |  | 0.1 | Low (Low: HIA value < 0.7) |  | 
10 | C[N+]1(CCCCC[N+]2(C)CCCC2)CCCC1 [Pentolinium] |  | 0.05 | Low (Low: HIA value < 0.7) |  | 
11 | COc1ccnc(C[S+]([O-])c2nc3ccc(OC(F)F)cc3[nH]2)c1OC (stereo not shown) [Pantoprazole] |  | 0.77 | High (High: HIA value ≥0.7) |  | 
12 | C[C@@H]1O[C@@H](OC[C@H]2O[C@@H](Oc3c(-c4ccc(O)c(O)c4)oc4cc(O)cc(O)c4c3=O)[C@H](O)[C@@H](O)[C@@H]2O)[C@H](O)[C@H](O)[C@H]1O [Rutin] | 57 ± 5.8 µM |  |  |  | 
13 | Clc1ccc2c(c1)C(N1CCNCC1)=Nc1ccccc1O2 [Amoxapine] |  | 0.95 | High (High: HIA value ≥0.7) |  | 
14 | O=c1c(O[C@@H]2O[C@H](CO)[C@@H](O)[C@H](O)[C@H]2O)c(-c2ccc(O)cc2)oc2cc(O)cc(O)c12 [Kaempferol-3-glucoside] |  |  |  |  | 74 µM
15 | CSc1ccc2ncn(/C=C/C(=O)O)c(=O)c2c1 [Tiacrilast] |  | 0.99 | High (High: HIA value ≥0.7) |  | 
16 | O=CN(O)CCCP(=O)(O)O [Fosmidomycin] |  | 0.3 | Low (Low: HIA value < 0.7) |  | 
17 | CCOC(=O)C1=C[C@@H](OC(CC)CC)[C@H](NC(C)=O)[C@@H](N)C1 [Oseltamivir] |  | 0.75 | High (High: HIA value ≥0.7) |  | 
